Laboratory results published in patent US10065941B2, “Aminotriazine derivative and pharmaceutical composition comprising the same” (Shionogi & Co., Ltd., priority 2013, dated 2018).

Target: human P2X3 receptor (Homo sapiens (Human), UniProt P56373)
Experiment: Evaluation of human P2X3 receptor inhibitory activity (Test Example 1)
Assay type: cell-based
Conditions: C6BU-1 cell transfected with human P2X3 receptor gene, FLIPR 384
Description: Stably expressing cell line (C6BU-1 cell transfected with human P2X3 receptor gene (GenBank accession number Y07683) was used. The cells were seeded in a 384-well PDL-coated microtiter plate at a concentration of 3000 cells/well and cultured in the medium (8.3% fetal bovine serum, 8.3% horse serum, and 1% antibiotic and antifungal in DMEM) for one day at 37° C. under 5% carbon dioxide atmosphere. The medium was replaced with 4 μM Fluo-3-AM solution (20 mM HEPES, 137 mM NaCl, 2.7 mM KCl, 0.9 mM MgCl2, 5.0 mM CaCl2, 5.6 mM D-glucose, 2.5 mM probenecid, 0.5% BSA, and 0.04% Pluronic F-127, pH 7.5) and incubated at 37° C. under 5% dioxide carbon atmosphere for one hour. The plate was washed with washing buffer (20 mM HEPES, 137 mM NaCl, 2.7 mM KCl, 0.9 mM MgCl2, 5.0 mM CaCl2, 5.6 mM D-glucose, 2.5 mM probenecid, pH7.5), and each well was added with 20 μL of the washing buffer. The plate was placed in High-Throughput Screening System FLIPR 384 (Molecular Device Co.). Measurement of fluorescence intensity by FLIPR 384 was started, and 20 μL of DMSO solutions containing different concentrations of the test compound as prepared by dilution with dilution buffer (20 mM HEPES, 137 mM NaCl, 2.7 mM KCl, 0.9 mM MgCl2, 5.0 mM CaCl2, 5.6 mM D-glucose, 2.5 mM probenecid, 0.1% Pluronic F-127, pH7.5) were dispensed to each well through the built-in automatic dispenser. Five minutes after, 150 nM ATP solution (25 μL) prepared by dilution with the dilution buffer was dispensed through the built-in automatic dispenser, and the measurement of fluorescence intensity was continued for 4 min. For each well, the specific maximum fluorescence intensity was calculated as the ratio of the maximum fluorescence intensity after addition of the ATP solution to the fluorescence intensity at the starting of the measurement. […] The specific maximum fluorescence intensity and IC50 were calculated using Spotfire (Science & Technology Systems, Inc.)

Chain of human P2X3 receptor (P56373 whole entry): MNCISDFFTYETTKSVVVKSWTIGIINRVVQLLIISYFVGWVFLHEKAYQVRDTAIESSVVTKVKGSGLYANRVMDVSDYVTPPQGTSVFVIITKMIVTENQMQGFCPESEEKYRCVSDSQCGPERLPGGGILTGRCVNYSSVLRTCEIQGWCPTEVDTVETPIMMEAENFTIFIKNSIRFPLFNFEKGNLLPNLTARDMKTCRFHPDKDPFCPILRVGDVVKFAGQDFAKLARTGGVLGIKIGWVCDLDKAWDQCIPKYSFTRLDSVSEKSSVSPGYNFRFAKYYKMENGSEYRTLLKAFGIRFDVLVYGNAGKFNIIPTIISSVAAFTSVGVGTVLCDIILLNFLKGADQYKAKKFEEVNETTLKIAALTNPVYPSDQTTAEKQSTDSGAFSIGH

Structure (SMILES) | IC50
COC(=O)C(C)(C)Cn1c(=O)[nH]/c(=N\c2ccc(Oc3ccc(Cl)cn3)cc2)n(Cc2ccc(Cl)cc2)c1=O [Compound I-004] | 14 nM
CCOC(=O)[C@H]1C[C@@H](n2c(=O)[nH]/c(=N\c3ccc(Oc4ncccc4F)cc3)n(Cc3ccc(Cl)cc3)c2=O)C1 [Compound I-062] | 31 nM
Cc1ccc(Cn2c(=O)n(C[C@H](C)C(=O)O)c(=O)[nH]/c2=N\c2ccc(Oc3ccc(C(F)(F)F)cn3)cc2)cc1 [Compound I-038] | 5 nM
COC(=O)[C@@H](C)Cn1c(=O)[nH]/c(=N\c2ccc(Oc3cnccn3)c(F)c2)n(Cc2ccc(Cl)cc2)c1=O [Compound R-048] | 6 nM
NC(=O)CCn1c(=O)[nH]/c(=N\c2ccc(Oc3ccccn3)cc2)n(Cc2ccc(Cl)cc2)c1=O [Compound R-229] | 7 nM
COC(=O)[C@@H](C)Cn1c(=O)[nH]/c(=N\c2ccc(Oc3ccc(F)cn3)cc2)n(CC2CCC3(CC2)CC3)c1=O [Compound I-237] | 14 nM
COC(=O)[C@@H](C)Cn1c(=O)[nH]/c(=N\c2ccc(Oc3ccc(CF)cn3)cc2)n(Cc2ccc(Cl)cc2)c1=O [Compound I-238] | 5 nM
COC(=O)CCn1c(=O)[nH]/c(=N\c2ccc(Oc3ccc(Cl)cn3)cc2)n(Cc2ccc(C)cc2)c1=O [Compound R-289] | 5 nM
Cc1ccc(Cn2c(=O)n(CCCC(=O)O)c(=O)[nH]/c2=N\c2ccc(Oc3ncccc3F)cc2)cc1 [Compound R-277] | 14 nM
COC(=O)[C@@H](C)Cn1c(=O)[nH]/c(=N\c2ccc(Oc3cccc(F)n3)cc2)n(Cc2ccc(F)cc2F)c1=O [Compound I-026] | 17 nM
COC(=O)[C@H](C)[C@H](C)n1c(=O)[nH]/c(=N\c2ccc(Oc3ccc(OC(F)F)cn3)cc2)n(Cc2ccc(C)cc2)c1=O [Compound I-137] | 14 nM
Cc1ccc(Cn2c(=O)n(C[C@H](C)C(=O)O)c(=O)[nH]/c2=N\c2ccc(Oc3cccc(C(F)(F)F)n3)cc2)cc1 [Compound I-039] | 8 nM
O=C(O)C1(Cn2c(=O)[nH]/c(=N\c3ccc(Oc4ccc(F)cn4)cc3)n(Cc3ccc(Cl)cc3)c2=O)COC1 [Compound I-059] | 16 nM
Cc1cc(/N=c2\[nH]c(=O)n(CC(C)(C)C(=O)O)c(=O)n2Cc2ccc(Cl)cc2)ccc1Oc1cncc(F)c1 [Compound R-118] | 5 nM
C[C@@H](Oc1ccc(/N=c2\[nH]c(=O)n(CC(C)(C)C(=O)O)c(=O)n2Cc2ccc(Cl)cc2)cc1O[C@H](C)C(F)(F)F)C(F)(F)F [Compound R-096] | 156 nM
COc1cccnc1Oc1ccc(/N=c2\[nH]c(=O)n(C[C@H](C)C(=O)O)c(=O)n2Cc2ccc(Cl)cc2)cc1 [Compound I-156] | 12 nM
C[C@@H](Cn1c(=O)[nH]/c(=N\c2ccc(Oc3cccc(F)n3)cc2)n(Cc2ccc(CF)cc2)c1=O)C(=O)O [Compound I-217] | 11 nM
CCc1ccc(Oc2ccc(/N=c3\[nH]c(=O)n(C[C@H](C)C(=O)OC)c(=O)n3Cc3ccc(C)cc3)cc2)nc1 [Compound I-270] | 4 nM
COc1nc(=O)n(Cc2ccc(Cl)cc2)/c(=N/c2ccc(Oc3cccc(C#N)n3)cc2)[nH]1 [Compound R-232] | 61 nM
COC(=O)[C@@H](C)Cn1c(=O)[nH]/c(=N\c2ccc(Oc3ccc(C(F)(F)F)nn3)cc2)n(Cc2ccc(Cl)cc2)c1=O [Compound R-028] | 7 nM
O=C(O)C1(Cn2c(=O)[nH]/c(=N\c3ccc(Oc4ccc(F)cn4)cc3)n(Cc3ccc(Cl)cc3)c2=O)CC1 [Compound I-018] | 12 nM
COCc1cccc(Oc2ccc(/N=c3\[nH]c(=O)n(C[C@H](C)C(=O)OC)c(=O)n3Cc3ccc(C)cc3)cc2)n1 [Compound I-250] | 31 nM
Cc1ccc(Cn2c(=O)n(C[C@H](C)C(=O)O)c(=O)[nH]/c2=N\c2ccc(Oc3ccccn3)c(C)c2)cc1 [Compound I-213] | 12 nM
CCn1c(=O)[nH]/c(=N\c2ccc(Oc3ncc(C(=O)O)cc3Cl)cc2)n(Cc2ccc(Cl)cc2)c1=O [Compound R-016, 1-(4-chlorobenzyl)-6-[4-(3-chloro-5-hydroxycarbonyl-2-pyridyloxy)phenylimino]-3-ethyl-1,3,5-triazinane-2,4-dione] | 6 nM
COC(=O)[C@@H](C)Cn1c(=O)[nH]/c(=N\c2ccc(N3CCOCC3)c(F)c2)n(Cc2ccc(Cl)cc2)c1=O [Compound R-106] | 379 nM
COC(=O)C(C)(C)Cn1c(=O)[nH]/c(=N\c2ccc(Oc3cc(Cl)ncn3)cc2)n(Cc2ccc(Cl)cc2)c1=O [Compound R-047] | 9 nM

Structure (SMILES) | IC50
CCOC(=O)C1(Cn2c(=O)[nH]/c(=N\c3ccc(Oc4ccccn4)cc3)n(Cc3ccc(Cl)cc3)c2=O)CC1 [Compound I-192] | 5 nM
COC(=O)[C@@H](C)Cn1c(=O)[nH]/c(=N\c2ccc(Oc3ccccn3)cc2)n(Cc2ccc(CF)cc2)c1=O [Compound I-206] | 10 nM
CC(=O)c1cccc(Oc2ccc(/N=c3\[nH]c(=O)n(CCC(=O)O)c(=O)n3Cc3ccc(Cl)cc3)cc2)n1 [Compound R-299] | 20 nM
COC(=O)[C@@H](C)Cn1c(=O)[nH]/c(=N\c2ccc(Oc3ccc(F)cn3)cc2)n(Cc2ccc(CF)cc2)c1=O [Compound I-208] | 12 nM
COC(=O)[C@@H](C)Cn1c(=O)[nH]/c(=N\c2ccc(Oc3cnc(Cl)cn3)cc2)n(Cc2ccc(Cl)cc2)c1=O [Compound R-013] | 6 nM
COC(=O)[C@H](C)[C@H](C)n1c(=O)[nH]/c(=N\c2ccc(Oc3ccnc(Cl)c3)cc2)n(Cc2ccc(Cl)cc2)c1=O [Compound R-150] | 18 nM
COC(=O)[C@@H](C)Cn1c(=O)[nH]/c(=N\c2ccc(Oc3ccnc(F)c3)cc2)n(Cc2ccc(C)cc2)c1=O [Compound R-221] | 5 nM
COC(=O)[C@@H](C)Cn1c(=O)[nH]/c(=N\c2ccc(Oc3cncc(Cl)c3)cc2)n(Cc2ccc(Cl)cc2)c1=O [Compound R-079] | 11 nM
C[C@@H](Cn1c(=O)[nH]/c(=N\c2ccc(Oc3cncc(F)c3)c(F)c2)n(Cc2ccc(Cl)cc2)c1=O)C(=O)O [Compound R-117] | 6 nM
Cc1ccc(Cn2c(=O)n(CCCC(=O)O)c(=O)[nH]/c2=N\c2ccc(Oc3ccc(F)cn3)cc2)cc1 [Compound R-278] | 15 nM
C[C@@H](Cn1c(=O)[nH]/c(=N\c2ccc(Oc3nccnc3Cl)cc2)n(Cc2ccc(Cl)cc2)c1=O)C(=O)O [Compound R-211] | 7 nM
COCc1ccc(Oc2ccc(/N=c3\[nH]c(=O)n(C[C@H](C)C(=O)O)c(=O)n3Cc3ccc(C)cc3)cc2)nc1 [Compound I-254] | 6 nM
COC(=O)CCn1c(=O)[nH]/c(=N\c2ccc(Oc3cccc(C(C)=O)n3)cc2)n(Cc2ccc(Cl)cc2)c1=O [Compound R-302] | 6 nM
COC(=O)[C@@H](C)Cn1c(=O)[nH]/c(=N\c2ccc(Oc3ccccn3)c(F)c2)n(Cc2ccc(C)cc2)c1=O [Compound I-204] | 4 nM
Cc1ccc(Cn2c(=O)n([C@H]3C[C@H](C(=O)O)C3)c(=O)[nH]/c2=N\c2ccc(Oc3ccc(F)cn3)cc2)cc1 [Compound I-182] | 8 nM
COC(=O)[C@@H](C)Cn1c(=O)[nH]/c(=N\c2ccc(Oc3cccc(F)n3)cc2)n(CC2CCC3(CC2)CC3)c1=O [Compound I-236] | 16 nM
COC(=O)[C@H](C)[C@H](C)n1c(=O)[nH]/c(=N\c2ccc(Oc3cnccn3)c(C)c2)n(Cc2ccc(Cl)cc2)c1=O [Compound R-158] | 12 nM
COC(=O)[C@H](C)[C@H](C)n1c(=O)[nH]/c(=N\c2ccc(Oc3ccccn3)c(F)c2)n(Cc2ccc(Cl)cc2)c1=O [Compound I-228] | 21 nM
Cc1ccc(Cn2c(=O)n([C@@H](C)[C@@H](C)C(=O)O)c(=O)[nH]/c2=N\c2ccc(Oc3ccc(OC(F)F)cn3)cc2)cc1 [Compound I-138] | 7 nM
COC(=O)C[C@@H](C)n1c(=O)[nH]/c(=N\c2ccc(Oc3ccccn3)cc2)n(Cc2ccc(C)cc2)c1=O [Compound I-186] | 5 nM
COC(=O)C(C)(C)Cn1c(=O)[nH]/c(=N\c2ccc(Oc3cccc(Cl)n3)cc2)n(Cc2ccc(Cl)cc2)c1=O [Compound I-012] | 25 nM
Cc1nccnc1Oc1ccc(/N=c2\[nH]c(=O)n(C[C@H](C)C(=O)O)c(=O)n2Cc2ccc(Cl)cc2)cc1 [Compound R-237] | 9 nM
Cc1ccc(Cn2c(=O)n(C[C@H](C)C(=O)O)c(=O)[nH]/c2=N\c2ccc(Oc3ccnc(F)c3)cc2)cc1 [Compound R-223] | 7 nM
COc1ccc(Oc2ccc(/N=c3\[nH]c(=O)n(C[C@H](C)C(=O)O)c(=O)n3Cc3ccc(Cl)cc3)cc2)nn1 [Compound R-085] | 6 nM
CC(C)(Cn1c(=O)[nH]/c(=N\c2ccc(Oc3ncccc3F)cc2)n(Cc2ccc(Cl)cc2)c1=O)C(=O)O [Compound I-009] | 7 nM
COC(=O)[C@H](C)[C@H](C)n1c(=O)[nH]/c(=N\c2ccc(Oc3ncc(C)s3)cc2)n(Cc2ccc(Cl)cc2)c1=O [Compound R-182] | 26 nM
